The values that follow come from patent US8895599B2, “Lipoprotein lipase-activating compositions comprising benzene derivates” (Otsuka Pharmaceutical Factory, Inc., priority 2008, dated 2014).

SMILES strings stand for the structures.

Series [1] is described as follows: Anti-obesity test using Zucker fatty rats. Particulars: 100 mg/kg oral, once a day over 4 weeks, relative to control group. It is filed as in vivo. From the text: Anti-Obesity Test Using Zucker Fatty Rats
Zucker fatty rats are obese rats discovered by Zucker et al., in 1961 as mutants among 13 M rats, which are a hybrid between 13C and M rats. These rats (fa/fa) start to appear distinctly obese from normal broods around the age of 3 weeks. As they age, the weight difference between the fatty rats and normal rats increases. Zucker fatty rats are currently kept by a variety of organizations as simple obesity models, and are readily obtainable.
This test was performed using this rat model to evaluate the anti-obesity action of the compounds of the invention. The preparation method of test samples and the test procedures are described below:
The test samples were prepared in the same manner as in Test Example 2.
Zucker fatty rats and lean rats (both from Charles River Japan) were purchased at the age of 5 weeks. They were divided into groups (10 rats per group) according to body weight when they reached 6 weeks old. After acclimatization, the administration of test samples was initiated when the rats reached 8 weeks old. Test samples were orally administered using an oral gavage so that the compounds of the invention contained in the test samples were given in an amount of 100 mg/kg body weight (test sample dosage: 5 ml/kg body weight). The test samples were administered once a day over 4 weeks at a specific time of day.
As a control, a group of rats were administered with the same amount of 5% aqueous gum arabic solution (5 ml/kg body weight) instead of the test samples.
The rats of all groups were weighed on the last day of administration. The average body weight of the rats of each test group was compared with the average body weight (standard weight) of the rats of the control group to obtain the weight variations (differences). The weight differences were expressed as percentages in relation to the standard weight. The values thus calculated are referred to as “weight change %”. When a weight difference is negative relative to the standard weight, weight change % is shown with “−” (minus).
During the test period, the rats of the respective groups had free access to rat feed (“CRF-1”, manufactured by Oriental Yeast, Co., Ltd.) and water (tap water).

Series [2] is described as follows: Anti-obesity test using AKR mice (high-fat feed). Type of series: in vivo. Particulars: 1 mg per gram of feed in high-fat feed, 7 weeks, AKR/J mice, relative to high-fat feed control group. From the text:
Anti-Obesity Test Using AKR Mice
Furthermore, this test enables the evaluation of therapeutic effects on diabetes. That is, it is reported that insulinemia can be observed in AKR/J mice when they are fed with a high-fat diet (see Am. J. Physiol. 266 (5 Pt 2), May 1994: R1423-8). It is thus known that insulinemia is strongly associated with diabetes (see, for example, J. Cardiovasc. Nurs. 16 (2), January 2002: 17-23). Therefore, this test can verify the therapeutic effects of the compounds of the present invention, used as test compounds, on diabetes.
For rat feed, powdered CRF-1 (Charles River Formula 1, manufactured by Oriental Yeast, Co., Ltd.) was used as normal feed. As high-fat feed, that prepared by blending CRF-1 with 18% safflower oil (Oriental Yeast, Co., Ltd.) was used.
Test substances were blended with the high-fat feed in an amount of 1 mg per gram of CRF-1.
AKR/J mice (from CLEA Japan, Inc.) were purchased at the age of 4 weeks. They were roughly divided into 2 groups according to body weight when the mice reached 5 weeks old. During this period, all mice were given the normal feed.
Subsequently, the mice of one group (8 mice) continued to be fed with the normal feed (normal feed group). The mice of the other group (8×(the number of the test substances+1) mice) were given the high-fat feed (high-fat feed group).
The body weight of the mice of each group was measured daily. […] These mice were further reared for 7 weeks (“test substances+high-fat feed groups”; n=8 per type of test substance). Specifically, the administration of the test substances was continued for 7 weeks. A group of mice to which high-fat feed containing no test substance was continued to be given was used as a control (high-fat feed control group; n=8).
Four hours after the feeding on the last day of the 7-week test (the last day of the test), the body weight of the mice of the “test substances+high fat feed groups” was measured. Blood was collected from the abdominal aorta of the mice using a heparinized syringe, and the leptin and insulin levels in the plasma were measured using an Elisa kit (produced by Morinaga). The mice of the other groups (normal feed group and high-fat feed control group) were reared till the last day of the test as above, and 4 hours after the last feeding on the last day of the test the measurements were performed according to the same procedures.
The average values of the test results (body weight, leptin level, and insulin level) of the test substances+high-fat feed groups to which the compounds prepared in Examples (Examples 10 and 58) were used as test substances (hereinbelow referred to as the “Example Compound 10-mixed high-fat feed group” and “Example Compound 58-mixed high-fat feed group”) were compared with the respective average values (standard values) of the results obtained from the mice of the high-fat control group to obtain the variations (differences). The differences were expressed as percentages in relation to the standard values. The values thus calculated were referred to as “weight change (%)”, “leptin level change (%)”, and “insulin level change (%)”. In the table below, the symbols “−” (minus) indicate that the differences are negative relative to the standard values.

The nature of series [3]: Therapeutical effect on olive oil-induced triglyceride hyperlipidemia models. Type of series: in vivo. Particulars: once a day for one week, SD rats, 2 h after olive oil. As for the experimental part:
Test of Therapeutical Effect on Olive Oil-Induced Triglyceride Hyperlipidemia Models
To conduct this test, 6-week-old SD rats (purchased from Charles River Japan) were used.
According to the body weight of the test rats when they were 5 weeks old, the test rats were divided into test groups and a control group with 6 rats per group.
A predetermined amount of each compound prepared in the Examples was measured and placed in an agate mortar. While 5% aqueous gum arabic solution was gradually introduced to the mortar, the compound was uniformly ground and suspended. Test samples were prepared by further adding 5% aqueous gum arabic solution gradually. Subsequently, these test samples were subjected to ultrasonic washing for 10 minutes to homogenize. Test samples were prepared as and when necessary.
The rats of the test groups were orally administered with the compounds of the invention such that rats received the compounds in an amount of 10, 30, or 100 mg/kg. The compounds of the invention were formulated as 5% gum arabic suspensions as described above.
The rats of the control group were orally administered with 5% aqueous gum arabic solution (not containing the compounds of the invention) in an amount of 5 ml/kg body weight. Administration was conducted once a day continuously for one week at a specific time of day after the rats reached 6 weeks of age. This test was performed under non-fasting conditions (rats had free access to feed and water), and the rats were fasted after the final administration of the compounds or 5% aqueous gum arabic solution.
Two hours after the final administration, olive oil was orally administered to the rats from both groups in an amount of 3 ml/kg body weight.
Two hours after the olive oil administration, blood was collected from the abdominal aorta of the rats of the respective groups using a heparinized syringe. The plasma was centrifugally separated from the blood at a temperature of 4° C., and the triglyceride level of the plasma was measured. A Hitachi 7170 automatic analyzer was used as the measuring instrument. Using the values measured from the test groups and control group, the decrease (%) in plasma triglyceride level was calculated according to the following equation: Decrease (%) in plasma triglyceride concentration=(1−E/C)×100 wherein E represents the average plasma triglyceride level in each test group; and C represents the average plasma triglyceride level in the control group.

For orientation: melting point means the temperature of the solid-liquid transition. The compound `COc1cc(-c2cn3ccccc3n2)ccc1OCc1ccc(Br)cc1F` [Example 58] showed a melting point of 111 to 113 °C. For the same compound, the “Weight Change (%)” value in series [1] is on record as −19%. Further, the “Weight Change (%)” value in series [2] was −10%. Further, in series [2] (plasma), the “Insulin level change (%)” value is reported as −12% and the “Leptin level change (%)” value is given as −55%. For the same compound, in series [3] (10 mg/kg oral), the “Decrease in plasma triglyceride level (%)” value (shortened to “Decrease … (%)”) was 31%. For the same compound, the “Decrease … (%)” value in series [3] (30 mg/kg oral) was 66%. In series [3] (100 mg/kg oral), the “Decrease … (%)” value is recorded as 79%.
